This assay has as its system HCV genotype-1a variant with glutamine 30 changed to glutamate in the NS5A protein. It counts as cell-based. The conditions noted are these: test compound titrated with BMS-790052 fixed at 200 nM; genotype 1a Q30E replicon. From the text: The NS5A synergistic inhibitory effect of test compounds can be determined using various amounts of an NS5A-targeting compound with titration of a second compound of interest. […] In one embodiment, the HCV genotype strain can be genotype 1a containing a change at amino acid 30 of the NS5A protein consisting of glutamine to glutamate. The test compound can be chosen from compounds listed above or from others present in the literature.
A general note: Replicon systems follow genome replication, usually without infectious particles.

For `CC(C)(C)[C@H](NC(=O)C1C2CC(F)(F)CC21)c1nc(-c2ccc(-c3ccc(-c4c[nH]c([C@@H](NC(=O)C5C6CC(F)(F)CC65)C(C)(C)C)n4)cc3)cc2)c[nH]1` (stereo partly drawn) [Compound Y-7], the “Fold-Synergistic 1a (Q30E)” value is >100 fold.
Consider `CC(C)(C)[C@H](NC(=O)C1(NC(=O)CC(F)(F)F)CCCCC1)c1nc(-c2ccc(-c3ccc(-c4c[nH]c([C@@H](NC(=O)C5(NC(=O)CC(F)(F)F)CCCCC5)C(C)(C)C)n4)cc3)cc2)c[nH]1` [Compound W-255], for which the “Fold-Synergistic 1a (Q30E)” value is >100 fold.
Regarding `Cc1cc(C(=O)N[C@H](c2ncc(-c3ccc(-c4ccc(-c5cnc([C@@H](NC(=O)c6cc(C)oc6C)C(C)C)[nH]5)cc4)cc3)[nH]2)C(C)C)c(C)o1` [Compound S-98], the “Fold-Synergistic 1a (Q30E)” value is listed as >100 fold.
`CC(C)[C@H](NC(=O)C(=O)C1(CO)CCC(F)(F)CC1)c1ncc(-c2ccc(-c3ccc(-c4cnc([C@@H](NC(=O)C(=O)C5(CO)CCC(F)(F)CC5)C(C)C)[nH]4)cc3)cc2)[nH]1` [Compound P-128]: the “Fold-Synergistic 1a (Q30E)” value is on record as >100 fold.
The result for `CC(C)[C@H](NC(=O)c1nccn1C)c1ncc(-c2ccc(-c3ccc(-c4cnc([C@@H](NC(=O)c5nccn5C)C(C)C)[nH]4)cc3)cc2)[nH]1` [Compound S-105] reads <10 fold; that for `CC(C)[C@H](NC(=O)N1CCCCC1)c1ncc(-c2ccc(-c3ccc(-c4cnc([C@@H](NC(=O)N5CCCCC5)C(C)C)[nH]4)cc3)cc2)[nH]1` [Compound S-234], >100 fold.
The result for `CC(C)(C)[C@H](NC(=O)c1ccc(Cl)s1)c1nc(-c2ccc(-c3ccc(-c4c[nH]c([C@@H](NC(=O)c5ccc(Cl)s5)C(C)(C)C)n4)cc3)cc2)c[nH]1` [Compound N-65] reads >100 fold.
The result for `CC(C)(C)[C@H](NC(=O)C1(CO)CCC(F)(F)CC1)c1nc(-c2ccc(-c3ccc(-c4c[nH]c([C@@H](NC(=O)C5(CO)CCC(F)(F)CC5)C(C)(C)C)n4)cc3)cc2)c[nH]1` [Compound P-37] reads >100 fold; that for `CO[C@H](C(=O)N[C@H](c1ncc(-c2ccc(-c3ccc(-c4cnc([C@@H](NC(=O)[C@@H](OC)c5ccccc5)C(C)C)[nH]4)cc3)cc2)[nH]1)C(C)C)c1ccccc1` [Compound P-85], >100 fold; that for `CC(C)[C@H](NC(=O)[C@H](NC(=O)OC1CCCC1)C(C)C)c1ncc(-c2ccc(-c3ccc(-c4cnc([C@@H](NC(=O)[C@H](NC(=O)OC5CCCC5)C(C)C)C(C)C)[nH]4)cc3)cc2)[nH]1` [Compound S-251], >100 fold.
`O=C(OC1CCCC1)N1CCC[C@H]1c1ncc(-c2ccc(-c3ccc(-c4cnc([C@@H]5CCCN5C(=O)OC5CCCC5)[nH]4)cc3)cc2)[nH]1` [Compound S-225]: the “Fold-Synergistic 1a (Q30E)” value is on record as >10 fold.
Regarding `CC(C)(C)[C@H](NC(=O)C1CCC(F)(F)CC1)c1ncc(CCc2ccc3cc(-c4cnc([C@@H](NC(=O)C5CCC(F)(F)CC5)C(C)(C)C)[nH]4)ccc3c2)[nH]1` [Compound B6], the “Fold-Synergistic 1a (Q30E)” value is listed as >100 fold.
Turning to `CC1(C(=O)N[C@H](c2nc(-c3ccc(-c4ccc(-c5c[nH]c([C@@H](NC(=O)C6(C)CCOCC6)C(C)(C)C)n5)cc4)cc3)c[nH]2)C(C)(C)C)CCOCC1` [Compound W-130], the “Fold-Synergistic 1a (Q30E)” value is >100 fold.
On to `CC(C)(C)C(NC(=O)C1C(c2ccccc2)C1c1ccccc1)c1nc(-c2ccc(-c3ccc(-c4c[nH]c(C(NC(=O)C5C(c6ccccc6)C5c5ccccc5)C(C)(C)C)n4)cc3)cc2)c[nH]1` (mixture of isomers) [Compound S-271], for which the “Fold-Synergistic 1a (Q30E)” value is recorded as >100 fold.
Regarding `CC(C)(C)[C@H](NC(=O)C1C2CCOC21)c1nc(-c2ccc(-c3ccc(-c4cnc([C@@H](NC(=O)C5C6CCOC65)C(C)(C)C)[nH]4)cc3)cc2)c[nH]1` (single isomer, unassigned) [Compound B-165], the “Fold-Synergistic 1a (Q30E)” value is listed as >100 fold.
For the compound `CC[C@@H](NC(=O)OC)C(=O)N[C@H](c1ncc(-c2ccc(-c3ccc(-c4cnc([C@@H](NC(=O)[C@@H](CC)NC(=O)OC)C(C)C)[nH]4)cc3)cc2)[nH]1)C(C)C` [Compound P-104], the “Fold-Synergistic 1a (Q30E)” value is recorded as >100 fold.
In the case of `CC(C)C(NC(=O)C1CC1c1ccccc1)c1ncc(-c2ccc(-c3ccc(-c4cnc(C(NC(=O)C5CC5c5ccccc5)C(C)C)[nH]4)cc3)cc2)[nH]1` (stereo not drawn) [Compound S-21], the “Fold-Synergistic 1a (Q30E)” value is >100 fold.
Take `CC(C)[C@H](NC(=O)c1ccc(F)cc1)c1ncc(-c2ccc(-c3ccc(-c4cnc([C@@H](NC(=O)c5ccc(F)cc5)C(C)C)[nH]4)cc3)cc2)[nH]1` [Compound S-82]: the “Fold-Synergistic 1a (Q30E)” value is >100 fold.
To `CC(C)[C@H](NC(=O)c1cc(Cl)ccc1F)c1nc(-c2ccc3c(c2)CCc2cc(-c4c[nH]c([C@@H](NC(=O)c5cc(Cl)ccc5F)C(C)C)n4)ccc2-3)c[nH]1.O=C(O)C(F)(F)F` [Compound N-76] belongs >100 fold.
In the case of `CCN(CC)C(=O)NC(c1nc(-c2ccc(-c3ccc(-c4c[nH]c(C(NC(=O)N(CC)CC)C(C)C)n4)cc3)cc2)c[nH]1)C(C)C` (stereo not drawn) [Compound S-229], the “Fold-Synergistic 1a (Q30E)” value is given as >100 fold.
With `CC(C)[C@H](NC(=O)OC(C)(C)C)c1ncc(-c2ccc(-c3ccc(-c4cnc([C@@H](NC(=O)C(C)(C)C)C(C)C)[nH]4)cc3)cc2)[nH]1` [Compound Y-51], the “Fold-Synergistic 1a (Q30E)” value is reported as >100 fold.
Regarding `C[C@@H](C(=O)N[C@H](c1nc(-c2ccc(-c3ccc(-c4c[nH]c([C@@H](NC(=O)[C@H](C)c5ccccc5)C(C)(C)C)n4)cc3)cc2)c[nH]1)C(C)(C)C)c1ccccc1` [Compound N-61], the “Fold-Synergistic 1a (Q30E)” value is listed as >100 fold.
The result for `CC(C)[C@H](NC(=O)[C@H](C)c1ccccc1)c1ncc(-c2ccc(-c3ccc(-c4cnc([C@@H](NC(=O)[C@H](C)c5ccccc5)C(C)C)[nH]4)cc3)cc2)[nH]1` [Compound P-64] reads >100 fold; that for `CC(C)[C@H](NC(=O)CC#N)c1ncc(-c2ccc(-c3ccc(-c4cnc([C@@H](NC(=O)CC#N)C(C)C)[nH]4)cc3)cc2)[nH]1` [Compound S-29], >100 fold; that for `CC(O)C1(C(=O)N[C@H](c2nc(-c3ccc(-c4ccc(-c5c[nH]c([C@@H](NC(=O)C6(C(C)O)CCCCC6)C(C)(C)C)n5)cc4)cc3)c[nH]2)C(C)(C)C)CCCCC1` (single isomer, unassigned) [Compound N-152B], >100 fold.
The result for `COC(=O)N(C)C1(C(=O)N[C@H](c2nc(-c3ccc(-c4ccc(-c5c[nH]c([C@@H](NC(=O)C6(N(C)C(=O)OC)CC6)C6CC6)n5)cc4)cc3)c[nH]2)C2CC2)CC1` [Compound L-34] reads >100 fold; that for `CC(C)[C@H](NC(=O)C(C)(C)Oc1ccccc1F)c1ncc(-c2ccc(-c3ccc(-c4cnc([C@@H](NC(=O)C(C)(C)Oc5ccccc5F)C(C)C)[nH]4)cc3)cc2)[nH]1` [Compound Y-33], >100 fold; that for `CC(C)[C@H](NC(=O)c1ccc(F)c(F)c1)c1ncc(-c2ccc(-c3ccc(-c4cnc([C@@H](NC(=O)c5ccc(F)c(F)c5)C(C)C)[nH]4)cc3)cc2)[nH]1` [Compound S-16], >100 fold.
To `CC(C)(C)[C@H](N)c1nc(-c2ccc(-c3ccc(-c4c[nH]c([C@@H](Nc5ncc(Br)cn5)C(C)(C)C)n4)cc3)cc2)c[nH]1` [Compound W-16B] belongs <10 fold; to `COC(=O)C12CCC(C(=O)N[C@H](c3nc(-c4ccc(-c5ccc(-c6c[nH]c([C@@H](NC(=O)C78CCC(C(=O)OC)(CC7)CC8)C(C)(C)C)n6)cc5)cc4)c[nH]3)C(C)(C)C)(CC1)CC2` [Compound W-127], >100 fold; to `CC(C)(Br)C(=O)N[C@H](c1nc(-c2ccc(-c3ccc(-c4c[nH]c([C@@H](NC(=O)C(C)(C)Br)C(C)(C)C)n4)cc3)cc2)c[nH]1)C(C)(C)C` [Compound W-149], >100 fold.
Take `CC(C)(C)[C@H](NCC1CCCCC1)c1nc(-c2ccc(-c3ccc(-c4c[nH]c([C@@H](NCC5CCCCC5)C(C)(C)C)n4)cc3)cc2)c[nH]1.O=C(O)C(F)(F)F` [Compound L-2]: the “Fold-Synergistic 1a (Q30E)” value is listed as >100 fold.
On to `CC(C)(F)C(=O)N[C@H](c1ncc(-c2ccc(-c3ccc(-c4cnc([C@@H](NC(=O)C(C)(C)F)C5(C)CC5)[nH]4)cc3)cc2)[nH]1)C1(C)CC1` [Compound Y-36], for which the “Fold-Synergistic 1a (Q30E)” value was >100 fold.
The result for `Cc1ccc(CC(=O)N[C@H](c2ncc(-c3ccc(-c4ccc(-c5cnc([C@@H](NC(=O)Cc6ccc(C)cc6)C(C)C)[nH]5)cc4)cc3)[nH]2)C(C)C)cc1` [Compound S-42] reads >100 fold.
As to `CC(C)(C)[C@H](NC(=O)C1(C(O)c2ccccc2)CC1)c1nc(-c2ccc(-c3ccc(-c4c[nH]c([C@@H](NC(=O)C5(C(O)c6ccccc6)CC5)C(C)(C)C)n4)cc3)cc2)c[nH]1` (single isomer, unassigned) [Compound N-126B], the “Fold-Synergistic 1a (Q30E)” value is listed as >100 fold.
Take `CC(C)(C)[C@H](NC(=O)C1(COCc2ccccc2)COC1)c1nc(-c2ccc(-c3ccc(-c4c[nH]c([C@@H](NC(=O)C5(COCc6ccccc6)COC5)C(C)(C)C)n4)cc3)cc2)c[nH]1` [Compound L-124]: the “Fold-Synergistic 1a (Q30E)” value is >100 fold.
Consider `CCCCOC(=O)N[C@H](c1ncc(-c2ccc(-c3ccc(-c4cnc([C@@H](NC(=O)OCCCC)C(C)C)[nH]4)cc3)cc2)[nH]1)C(C)C` [Compound S-209], for which the “Fold-Synergistic 1a (Q30E)” value is recorded as >100 fold.
For the compound `CCN(CC(F)(F)F)C(=O)C(=O)NC(c1nc(-c2ccc(-c3ccc(-c4c[nH]c(C(NC(=O)C(=O)N(CC)CC(F)(F)F)C(C)C)n4)cc3)cc2)c[nH]1)C(C)C` (stereo not drawn) [Compound W-56], the “Fold-Synergistic 1a (Q30E)” value is on record as >100 fold.
To `COC(=O)NC(C)(C)C(=O)N[C@H](c1nc(-c2ccc(-c3ccc(-c4c[nH]c([C@@H](NC(=O)C(C)(C)NC(=O)OC)C(C)(C)C)n4)cc3)cc2)c[nH]1)C(C)(C)C` [Compound Q-1] belongs >100 fold.

The values above are taken from patent publication US20160158200A1, “Combinations of Hepatitis C Virus Inhibitors” (priority 2013, published 2016).
